Test results taken from patent publication US8309554B2 (priority 2008, dated 2012).
Counter-ions that a name gives are not always drawn. Like-named read-outs stand apart in the source and are kept apart here.

What was measured:
H460 = experiment: cells; format: cell-based; conditions: for IC50: Homo sapiens, NCI-H460, 2 h
HT29 = experiment: cells; format: cell-based; conditions: for IC50: Homo sapiens, HT-29, 2 h

Row | Compound | H460 HCR: Air/N2 (H460) | IC50 (H460; read-out: 2 hr Air H460 IC50) [µM] | IC50 (H460; read-out: 2 hr N2 H460 IC50) [µM] | HT29 HCR: Air/N2 (HT29) | IC50 (HT29; read-out: 2 hr Air HT29 IC50) [µM] | IC50 (HT29; read-out: 2 hr N2 HT29 IC50) [µM]
1 | CC(=O)Nc1ccc(CC(c2ccsc2[N+](=O)[O-])S(=O)(=O)Oc2ccc(N(CCCl)CCCl)cc2)cc1 (stereo not drawn) [TH-1346] | 200 | 220 | 1.1 | 3.2 | 145 | 46
2 | CNc1ccc(CC(c2ccsc2[N+](=O)[O-])S(=O)(=O)Oc2ccc(N(CCCl)CCCl)cc2)cn1 (stereo not drawn) [TH-1442] | 116 | 93 | 0.8 | 66 | 230 | 3.5
3 | O=[N+]([O-])c1sccc1C(Cn1nnc2ccccc21)S(=O)(=O)Oc1ccc(N(CCCl)CCCl)cc1 (stereo not drawn) [TH-1343, 3-(4-(N,N-bis-(2-Chloroethyl)amino)phenoxysulfonyl-(benzotriazol-1-yl-methyl))methyl-2-nitrothiophene] | 133 | 93 | 0.7 | >4.2 | > 1000 | 24
4 | Nc1ccc(CC(c2ccsc2[N+](=O)[O-])S(=O)(=O)Oc2ccc(N(CCCl)CCCl)cc2)cn1 (stereo not drawn) [TH-1255, 3-(4-(N,N-bis-(2-Chloroethyl)amino)phenoxysulfonyl-(2-aminopyridin-5-yl-methyl))methyl-2-nitrothiophene trifluoroacetate] | 30.7 | 61.4 | 2 | 16 | 204 | 13
5 | CC(=O)Nc1cc(CC(c2ccsc2[N+](=O)[O-])S(=O)(=O)Oc2ccc(N(CCCl)CCCl)cc2)ccn1 (stereo not drawn) [TH-1376] | 236 | 212 | 0.9 | 10 | 540 | 52
6 | O=[N+]([O-])c1sccc1C(CNS(=O)(=O)c1ccccc1)S(=O)(=O)Oc1ccc(N(CCCl)CCCl)cc1 (stereo not drawn) [TH-1218, 3-(4-(N,N-bis-(2-Chloroethyl)amino)phenoxysulfonyl-(phenylsulfonylaminomethyl))methyl-2-nitrothiophene] | 106 | 74 | 0.7 | – | > 300 | > 300
7 | CCCN(CCCl)c1ccc(OS(=O)(=O)C(Cc2ncco2)c2ccsc2[N+](=O)[O-])cc1 (stereo not drawn) [TH-1422] | 88 | 35 | 0.4 | >3.3 | > 300 | 90
8 | O=[N+]([O-])c1sccc1C(CCS(=O)(=O)N1CCOCC1)S(=O)(=O)Oc1ccc(N(CCCl)CCCl)cc1 (stereo not drawn) [TH-1303] | 69 | 75.5 | 1.1 | – | > 300 | > 300
9 | O=[N+]([O-])c1sccc1C(CCS(=O)(=O)c1ccccc1)S(=O)(=O)Oc1ccc(N(CCCl)CCCl)cc1 (stereo not drawn) [TH-1278] | 205 | 61.4 | 0.3 | – | > 1000 | > 1000
10 | O=[N+]([O-])c1sccc1C(Cc1ccc(O[C@H]2CCCC[C@@H]2O)nc1)S(=O)(=O)Oc1ccc(N(CCCl)CCCl)cc1 (stereo partly drawn) [TH-1487] | 64 | 51 | 0.8 | 1 | 240 | 280
11 | O=C(CO)Nc1ncccc1CC(c1ccsc1[N+](=O)[O-])S(=O)(=O)Oc1ccc(N(CCCl)CCCl)cc1 (stereo not drawn) [TH-1384] | 30 | 64 | 2.1 | 16 | 275 | 17
12 | O=[N+]([O-])c1sccc1C(Cc1cnc(OCCO)c(Cl)c1)S(=O)(=O)Oc1ccc(N(CCCl)CCCl)cc1 (stereo not drawn) [TH-1420] | 62 | 80 | 1.3 | – | > 300 | > 300
13 | COCC(=O)Nc1ccc(CC(c2ccsc2[N+](=O)[O-])S(=O)(=O)Oc2ccc(N(CCCl)CCCl)cc2)cc1 (stereo not drawn) [TH-1479] | 325 | 260 | 0.8 | 2.7 | > 300 | 110
14 | O=[N+]([O-])c1sccc1C(Cc1ccc(C(F)(F)F)nc1)S(=O)(=O)Oc1ccc(N(CCCl)CCCl)cc1 (stereo not drawn) [TH-1423] | 750 | 300 | 0.4 | – | > 300 | > 300
15 | COc1ccc(CC(c2ccsc2[N+](=O)[O-])S(=O)(=O)Oc2ccc(N(CCCl)CCCl)cc2)c(OC)n1 (stereo not drawn) [TH-1362] | 46 | 253 | 5.5 | – | > 1000 | > 1000
16 | O=[N+]([O-])c1sccc1C(Cc1ccc(OCCO)cc1)S(=O)(=O)Oc1ccc(N(CCCl)CCCl)cc1 (stereo not drawn) [TH-1325] | 929 | 92.9 | 0.1 | – | > 300 | > 300

Row | Compound | H460 HCR: Air/N2 (H460) | IC50 (H460; read-out: 2 hr Air H460 IC50) [µM] | IC50 (H460; read-out: 2 hr N2 H460 IC50) [µM] | HT29 HCR: Air/N2 (HT29) | IC50 (HT29; read-out: 2 hr Air HT29 IC50) [µM] | IC50 (HT29; read-out: 2 hr N2 HT29 IC50) [µM]
17 | CC(=O)Nc1ccncc1CC(c1ccsc1[N+](=O)[O-])S(=O)(=O)Oc1ccc(N(CCCl)CCCl)cc1 (stereo not drawn) [TH-1364] | 36 | 64 | 1.8 | 27 | 350 | 13
18 | COCC(=O)N(C)c1ccc(CC(c2ccsc2[N+](=O)[O-])S(=O)(=O)Oc2ccc(N(CCCl)CCCl)cc2)cn1 (stereo not drawn) [TH-1478, 3-(4-(N,N-bis-(2-Chloroethyl)amino)phenoxysulfonyl-(2-(N-methoxyacetyl-N-methylamino)pyridin-5-yl-methyl))methyl-2-nitrothiophene] | 300 | 120 | 0.4 | 11 | 220 | 20
19 | CCN(CC)CC#CCC(c1ccsc1[N+](=O)[O-])S(=O)(=O)Oc1ccc(N(CCCl)CCCl)cc1 (stereo not drawn) [TH-1545] | 51 | 102 | 2 | 12 | 60 | 5
20 | O=[N+]([O-])c1sccc1C(CCS(=O)(=O)N1CCC(O)CC1)S(=O)(=O)Oc1ccc(N(CCCl)CCCl)cc1 (stereo not drawn) [TH-1347] | 76 | 136 | 1.8 | 20 | 398 | 20
21 | Cn1ccnc1CC(c1ccsc1[N+](=O)[O-])S(=O)(=O)Oc1ccc(N(CCCl)CCCl)cc1 (stereo not drawn) [TH-1366] | 40 | 20 | 0.5 | 14 | 180 | 13
22 | O=[N+]([O-])c1sccc1C(Cc1ccccn1)S(=O)(=O)Oc1ccc(N(CCCl)CCCl)cc1 (stereo not drawn) [TH-1357] | 41 | 127 | 3.1 | >2 | > 1000 | 500
23 | CC(C)Nc1ccc(CC(c2ccsc2[N+](=O)[O-])S(=O)(=O)Oc2ccc(N(CCCl)CCCl)cc2)cn1 (stereo not drawn) [TH-1328] | 187 | 261 | 1.4 | 3.3 | 151 | 46
24 | O=[N+]([O-])c1sccc1C(Cc1ccc2nccn2c1)S(=O)(=O)Oc1ccc(N(CCCl)CCCl)cc1 (stereo not drawn) [TH-1435, 3-(4-(N,N-bis-(2-Chloroethyl)amino)phenoxysulfonyl-(imidazopyidin-5-yl-methyl))methyl-2-nitrothiophene] | 30 | 18 | 0.6 | >35 | > 300 | 8.5
25 | CN1CCN(S(=O)(=O)CCC(c2ccsc2[N+](=O)[O-])S(=O)(=O)Oc2ccc(N(CCCl)CCCl)cc2)CC1 (stereo not drawn) [TH-1326, 3-(4-(N,N-bis-(2-Chloroethyl)amino)phenoxysulfonyl-(2-((N-methylpiperazin-4-yl)sulfonyl)ethyl))methyl-2-nitrothiophene] | 42 | 16.6 | 0.4 | 48 | 126 | 2.6
26 | O=C(CO)Nc1ccc(CC(c2ccsc2[N+](=O)[O-])S(=O)(=O)Oc2ccc(N(CCCl)CCCl)cc2)cc1 (stereo not drawn) [TH-1400] | 54.3 | 76 | 1.4 | 2.1 | 170 | 80
27 | O=C(CO)Nc1cccc(OS(=O)(=O)CCC(c2ccsc2[N+](=O)[O-])S(=O)(=O)Oc2ccc(N(CCCl)CCCl)cc2)c1 (stereo not drawn) [TH-1414] | 54 | 135 | 2.5 | 7 | 740 | 100
28 | O=[N+]([O-])c1sccc1C(Cc1ccc2nnn(CCO)c2c1)S(=O)(=O)Oc1ccc(N(CCCl)CCCl)cc1 (stereo not drawn) [TH-1457, 3-(4-(N,N-bis-(2-Chloroethyl)amino)phenoxysulfonyl-(1-(2-hydroxyethyl)benzotriazol-6-yl-methyl))methyl-2-nitrothiophene] | 240 | 120 | 0.5 | 45 | 180 | 4
29 | O=C1c2ccccc2C(=O)N1CC(c1ccsc1[N+](=O)[O-])S(=O)(=O)Oc1ccc(N(CCCl)CCCl)cc1 (stereo not drawn) [TH-1327] | 178 | 107 | 0.6 | – | > 1000 | > 1000
30 | Nc1cccc(OS(=O)(=O)CCC(c2ccsc2[N+](=O)[O-])S(=O)(=O)Oc2ccc(N(CCCl)CCCl)cc2)c1 (stereo not drawn) [TH-1402] | 93.3 | 140 | 1.5 | – | > 1000 | > 1000
31 | O=[N+]([O-])c1sccc1C(Cc1cn2ccccc2n1)S(=O)(=O)Oc1ccc(N(CCCl)CCCl)cc1 (stereo not drawn) [TH-1456, 3-(4-(N,N-bis-(2-Chloroethyl)amino)phenoxysulfonyl-(imidazopyridin-2-yl-methyl))methyl-2-nitrothiophene] | 100 | 30 | 0.3 | >60 | > 300 | 5
